The source of these data is ChEMBL document CHEMBL1759870, “Identification, structural properties and chelating capacity of miltipolone as a broad-spectrum inhibitor to cancer cells” (Eur J Med Chem, 2011).

In one test the test system is HT-1080. Kind of test: Antiproliferative activity against human HT1080 cells after 96 hrs by MTT assay. In kind it is functional, cell-based. Conditions: HT-1080, 96 h.
The subject of the next test is HUVEC. Kind of test: Antiproliferative activity against human HUVEC cells after 96 hrs by MTT assay. In kind it is cell-based.
A further test has as its system HeLa. Briefly: Antiproliferative activity against human HeLa cells after 96 hrs by MTT assay. Type of test: functional, cell-based.
The test system of the next test is Bel-7402. Briefly: Antiproliferative activity against human Bel7402 cells after 96 hrs by MTT assay. In kind it is functional, cell-based. To be noted: Bel-7402, 96 h.
A further test relates to NCI-N87. Briefly: Antiproliferative activity against human NCI-N87 cells after 96 hrs by MTT assay. To be noted: NCI-N87, 96 h. In kind it is functional, cell-based.
A further test deals with A-375. Kind of test: Antiproliferative activity against human A375 cells after 96 hrs by MTT assay. Type of test: functional, cell-based. To be noted: A-375, 96 h.
Another test deals with PANC-1. Briefly: Antiproliferative activity against human PANC1 cells after 96 hrs by MTT assay. In kind it is functional, cell-based. To be noted: PANC-1, 96 h.
The subject of a further test is Jurkat. Briefly: Antiproliferative activity against human Jurkat cells after 96 hrs by MTT assay. In kind it is functional, cell-based.
For another test, the system named is HepG2. Briefly: Antiproliferative activity against human HepG2 cells after 96 hrs by MTT assay. Conditions: HepG2, 96 h. In kind it is functional, cell-based.

The structures appear in SMILES notation.

Consider `COc1cc([C@@H]2c3cc4c(cc3[C@@H](O[C@@H]3O[C@@H]5CO[C@@H](C)O[C@H]5[C@H](O)[C@H]3O)[C@H]3COC(=O)[C@H]23)OCO4)cc(OC)c1O` [ETOPOSIDE], for which half-maximal inhibition in the test with HT-1080 (IC50) required 750 nM.
In the test with HUVEC, `CO[C@@H]1[C@H](OC(=O)NC(=O)CCl)CC[C@]2(CO2)[C@H]1[C@@]1(C)O[C@@H]1CC=C(C)C` [O-CHLOROACETYLCARBAMOYLFUMAGILLOL] came in with a half-maximal inhibitory concentration (IC50) of 0.76 nM.
As for `CC(=O)O[C@H]1C(=O)[C@@]2(C)[C@H]([C@H](OC(=O)c3ccccc3)[C@]3(O)C[C@H](OC(=O)[C@H](O)[C@@H](NC(=O)c4ccccc4)c4ccccc4)C(C)=C1C3(C)C)[C@]1(OC(C)=O)CO[C@@H]1C[C@@H]2O` [PACLITAXEL], the IC50 came out at 100 nM in the test on HeLa; 578 nM in the test with Bel-7402; 1.2 nM in the test with HT-1080; 5.9 nM in the test with NCI-N87; 4.6 nM in the test with A-375; 384 nM in the test on PANC-1.
Regarding `COc1cccc2c1C(=O)c1c(O)c3c(c(O)c1C2=O)C[C@@](O)(C(=O)CO)C[C@@H]3O[C@H]1C[C@H](N)[C@H](O)[C@H](C)O1` [DOXORUBICIN], the 50% inhibitory concentration (IC50) was 30.3 nM in the test on HUVEC, 37.5 nM in the test with Jurkat, 420 nM with NCI-N87 and 19 nM in the test with HepG2.
